This assay concerns the target T1, Alcaligenes faecalis Penicillin G acylase mutant B:L56K (Alcaligenes faecalis, UniProt O34142, L321K).
T1 construct: alpha 202 aa, beta 551 aa; recombinant, E. coli host
T1 sequence (O34142 27-228): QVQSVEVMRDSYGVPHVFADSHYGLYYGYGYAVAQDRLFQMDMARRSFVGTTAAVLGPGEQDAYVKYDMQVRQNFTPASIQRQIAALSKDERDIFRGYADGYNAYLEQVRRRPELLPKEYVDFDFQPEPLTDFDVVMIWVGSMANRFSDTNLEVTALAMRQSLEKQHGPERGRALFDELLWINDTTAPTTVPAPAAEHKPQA
T1 sequence (O34142 266-816 L321K): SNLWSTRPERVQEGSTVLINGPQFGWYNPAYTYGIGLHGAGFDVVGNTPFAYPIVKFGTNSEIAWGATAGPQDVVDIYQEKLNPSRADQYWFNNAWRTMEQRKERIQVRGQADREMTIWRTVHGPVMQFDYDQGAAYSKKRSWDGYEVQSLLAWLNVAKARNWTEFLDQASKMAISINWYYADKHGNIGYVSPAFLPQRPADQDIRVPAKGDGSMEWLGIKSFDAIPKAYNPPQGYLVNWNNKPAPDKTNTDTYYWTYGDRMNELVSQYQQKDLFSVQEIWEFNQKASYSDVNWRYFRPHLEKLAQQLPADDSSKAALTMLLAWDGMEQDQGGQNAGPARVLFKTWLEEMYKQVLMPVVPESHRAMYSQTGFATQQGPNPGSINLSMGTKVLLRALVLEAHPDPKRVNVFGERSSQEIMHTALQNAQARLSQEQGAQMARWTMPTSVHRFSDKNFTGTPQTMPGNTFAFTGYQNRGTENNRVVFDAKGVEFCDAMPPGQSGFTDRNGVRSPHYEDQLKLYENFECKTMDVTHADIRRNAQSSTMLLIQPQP
Briefly: Deacylation kinetics and phenylacetic acid product inhibition, mutant B:L56K. The settings on record: from progress curves of NIPAB deacylation, 25° C., 0.1 M NaH2PO4.H2O buffer pH 7.5, read-out: Ki Phenylacetic acid (inhibition constant, dissociation constant). In kind it is biochemical. The protocol:
In order to determine enzymatic activity the acylases were incubated with substrate at room temperature in buffered solution. In case β-lactamase impurity was expected to be present in the enzyme preparations, 1.0 mM -lactamase inhibitor 6-bromo-penicillanic acid was added to the assay. The reactions were stopped by adding an excess PMSF. For some mutants which were less sensitive to PMSF inhibition, the reactions were stopped by adding 0.5 M HCl or 0.5 M acetic acid until the pH was between 3 and 4. When reactions were subsequently analysed by HPLC, the reactions were stopped by dilution with the correponding elution solvent (see table 1). […]
The composition of the reaction mixtures was determined by high-performanceliquid chromatography (HPLC)(table 1). Concentrations were determined by using standards of known concentration.
In a continuous assay Penicillin G acylase was assayed spectro-fotometrically with the chromogenic substrate NIPAB [6-nitro-3-phenylacetamido-benzoic acid]. The liberation of 3-amino-6-nitrobenzoic acid was monitored by measuring the extinction at 405 nm in a Kontron 610 kinetic spectrofotometer. […]
Initial rate measurements were performed with excess substrate over the enzyme. Catalytic parameters were derived from least-squares fitting of the measured initial rates plotted for various substrate concentrations according to the Michaelis-Menten equation. […]

Experimental findings from patent US6033823A, “Mutated penicillin G acylase genes” (priority 1994, dated 2000) are described below.

Usually Ki stands for a dissociation constant, usually derived from enzyme kinetics or from competition with a known ligand.

As to `O=C(O)Cc1ccccc1` [phenylacetic acid], the Ki worked out at 115 µM.
